# In patent US20250049758A1, “Danegaptide Formulation for Application in the Eye” (Breye Therapeutics APS, priority 2021, published 2025):
# Entries after “also recorded” stand apart in the source; their conditions may differ. Structures can show the parent of a compound that is named as a salt.
# Columns and labels:
# [1] = system: Gap-Junction coupling; assay: In vitro and in vivo pre-clinical studies, Gap-Junction coupling under stressed conditions
# [2] = Toxicology program; assay type: in vivo; conditions: high concentration levels administered locally in selected tissues or systemically
# From the text: However, the protective effects of danegaptide from stress-induced cell-cell uncoupling or cellular loss may be diminished or lost at higher concentrations of danegaptide.
# [3] = system: vascular leakage; conditions: cited from earlier work
# [4] = system: retinal endothelial cell coupling; conditions: in vitro; cited from earlier work
# [5] = Dissolution testing of prototype formulations in 0.9% NaCl at 37° C., HPLC; assay type: physicochemical; conditions: prolonged storage of the dosage form at 37° C.
# Protocol: Described below is the dissolution behavior of Danegaptide when formulated in 6 different melt extrusion formulations. The formulations were manufactured with a drug load of about 20%. The formulations were exposed to physiological salt solutions at 37° C. and stored for several months. The media was changed regularly and analyzed for content of Danegaptide.
# The dissolution process was investigated for each of the 6 manufactured prototypes by inserting the prototypes into a 0.9% NaCl solution and test the dissolution of Danegaptide over time by HPLC. The experiment was conducted over 170 days.
# Fifteen dose units of each prototype was weighed and were wrapped into a permeable filter bag consisting of empty triangular tea bags made of polymeric material, with a mesh size of less than 0.5 μm. The bags were each inserted into glass vials and 10 ml 0.9% NaCl solution media were added to each vial. The vials were placed in a water bath at 37° C. At regular intervals the media was drained and 10 ml new media was added and the vials were returned to the water bath. […] One day delivery periods were also tested several times during the dissolution period. […] In addition, an informative impurity profile was recorded. In relation to this, the pH value of each collected media sample was determined. […]
# The Danegaptide content was quantified to a Danegaptide reference substance. […]
# [6] = system: retinal vascular cells; conditions: cited from earlier work
# [7] = Water solubility; assay type: physicochemical
# From the text: Danegaptide as a HCL salt is water-soluble. To investigate the viability of this drug, a melt extrusion formulation strategy was chosen, and six different formulations based on various viable excipients feasible for the melt extrusion process were manufactured with approximately 20% drug load.
compound,measurement,setting,value
"NCC(=O)N1C[C@H](NC(=O)c2ccccc2)C[C@H]1C(=O)O [Danegaptide, (2S,4R)-1-(2-aminoacetyl)-4-benzoylamino-pyrrolidine-2-carboxylic acid]","Optimal concentration in the target tissue, such as the retina, to maintain Gap-Junction coupling",[1],50 to 100 nM
same,Toxicity,[2],no toxicity concerns
same,Vascular leakage,[3],reduce vascular leakage
same,Concentration giving optimal protection from high-glucose induced cell-cell uncoupling,[4],50 to 100 nM
same,Degradation of Danegaptide during the dissolution period (HPLC impurity profile),[5],probably only happened to a smaller extent; also recorded: did not indicate a significant degradation pattern
same,Cell-cell GJ uncoupling,[6]; high glucose condition,prevent cell-cell GJ uncoupling
same,High glucose-induced apoptosis,[6]; retinal vascular cells,prevent high glucose-induced apoptosis
NCC(=O)N1C[C@H](NC(=O)c2ccccc2)C[C@H]1C(=O)O [Danegaptide as a HCL salt],Water solubility,[7],water-soluble
